US9546138B2, “Pyridone derivatives and uses thereof in the treatment of tuberculosis” (priority 2012, dated 2017)

What was measured:
[1] = tested on: Mtb H37Rv resistant mutant 529-5X-108-S1 (inhA D148G); type: cell-based, Mycobacterium tuberculosis
[2] = tested on: Mtb H37Rv resistant mutant 529-5X-108-B2 (inhA S94A); type: cell-based, Mycobacterium tuberculosis
[3] = tested on: Mtb H37Rv resistant mutant 529-5X-108-B4 (inhA G96V); type: cell-based, Mycobacterium tuberculosis
[4] = tested on: Mtb H37Rv resistant mutant 529-10X-108-B6; type: cell-based, Mycobacterium tuberculosis
[5] = tested on: Mtb H37Rv resistant mutant 529-10X-107-B8 (inhA D148E); type: cell-based, Mycobacterium tuberculosis
[6] = tested on: BCG-529-108-10X-2 (InhA M161V); type: cell-based, M bovis BCG
[7] = tested on: BCG-916-108-25X-B1 (InhA M161I); type: cell-based, M bovis BCG
[8] = tested on: Mtb H37Rv resistant mutant 529-5X-108-S3 (inhA D148G); type: cell-based, Mycobacterium tuberculosis

Question: With `CCc1cc(C(N)=S)ccn1` [Ethionamide, reference compound] as the compound, how does the “Compound MIC50” value [1] read?
Answer: 1.53 µM

Question: What about the “Compound MIC50” value [2] of the same compound?
Answer: 9.74 µM

Question: And the “Compound MIC50” value [3]?
Answer: 1.32 µM

Question: What about the “Compound MIC50” value [4] of the same compound?
Answer: 1.41 µM

Question: And the “Compound MIC50” value [5]?
Answer: 1.91 µM

Question: And the “Compound MIC50” value [6]?
Answer: >60 µM

Question: What about the “Compound MIC50” value [7] of the same compound?
Answer: >60 µM

Question: What does the source list for `NNC(=O)c1ccncc1` [Isoniazid, isoniazid, reference compound]?
Answer: Compound MIC50 [1]: 0.15 µM; Compound MIC50 [2]: 0.86 µM; Compound MIC50 [8]: 0.15 µM; Compound MIC50 [3]: 0.09 µM; Compound MIC50 [4]: 0.11 µM; Compound MIC50 [5]: 0.31 µM; Compound MIC50 [6]: 1.27 µM; Compound MIC50 [7]: 1.48 µM

Question: How did the “Compound MIC50” value [1] turn out when `O=c1[nH]c(CC2CCCCC2)cc(O)c1-c1ccccc1` [PD2, 6-(cyclohexylmethyl)-4-hydroxy-3-phenylpyridin-2(1H)-one] was run?
Answer: 1.46 µM

Question: What about the “Compound MIC50” value [2] of the same compound?
Answer: 4.04 µM

Question: What about the “Compound MIC50” value [8] of the same compound?
Answer: 1.73 µM

Question: And the “Compound MIC50” value [3]?
Answer: 14.60 µM

Question: And the “Compound MIC50” value [4]?
Answer: >40 µM

Question: What about the “Compound MIC50” value [5] of the same compound?
Answer: >40 µM

Question: `CC1(C)CCC(Cc2cc(O)c(-c3ccccc3)c(=O)[nH]2)CC1` [PD10, 6-((4,4-dimethylcyclohexyl)methyl)-4-hydroxy-3-phenylpyridin-2(1H)-one] was tested. Which “Compound MIC50” value [1] did it give?
Answer: 0.29 µM

Question: And the “Compound MIC50” value [2]?
Answer: 0.78 µM

Question: And the “Compound MIC50” value [8]?
Answer: 0.38 µM

Question: And the “Compound MIC50” value [3]?
Answer: >5.0 µM

Question: And the “Compound MIC50” value [4]?
Answer: >5.0 µM

Question: And the “Compound MIC50” value [5]?
Answer: >5.0 µM

Question: What about the “Compound MIC50” value [6] of the same compound?
Answer: 3.02 µM

Question: And the “Compound MIC50” value [7]?
Answer: 3.2 µM

Question: What does the source list for `CC(C)Cc1cc(O)c(-c2ccccc2)c(=O)[nH]1` [PD12, 4-hydroxy-6-isobutyl-3-phenylpyridin-2(1H)-one]?
Answer: Compound MIC50 [1]: >40 µM; Compound MIC50 [2]: >40 µM; Compound MIC50 [8]: >40 µM; Compound MIC50 [3]: >40 µM; Compound MIC50 [4]: >40 µM; Compound MIC50 [5]: >40 µM; Compound MIC50 [6]: 27.88 µM; Compound MIC50 [7]: 21.52 µM
